For this assay, the target named is RIPK1 (recombinant GST-RIPK1 kinase domain, residues 1-327) (Homo sapiens (Human), UniProt Q13546). Description: RIPK1-ADP-Glo Enzymatic Assay. It counts as biochemical. To be noted: ADP-Glo; 25 nM GST-RIPK1, 300 μM ATP; assay lower limit ~25 nM; read-out: RIPK1 V0 Ec50. The method, boiled down: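 Luminescent ADP-Glo readout of ATP-to-ADP conversion. Conditions: 25 nM enzyme, 300 μM ATP, 3 μM dephospho-MBP, pH 7.3 HEPES buffer with 20 mM MgCl2; 30 min compound pre-incubation, 150 min reaction. EC50 via four-parameter sigmoidal regression; assay floor ~25 nM.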
RIPK1 (recombinant GST-RIPK1 kinase domain, residues 1-327), sequence (Q13546 1-327): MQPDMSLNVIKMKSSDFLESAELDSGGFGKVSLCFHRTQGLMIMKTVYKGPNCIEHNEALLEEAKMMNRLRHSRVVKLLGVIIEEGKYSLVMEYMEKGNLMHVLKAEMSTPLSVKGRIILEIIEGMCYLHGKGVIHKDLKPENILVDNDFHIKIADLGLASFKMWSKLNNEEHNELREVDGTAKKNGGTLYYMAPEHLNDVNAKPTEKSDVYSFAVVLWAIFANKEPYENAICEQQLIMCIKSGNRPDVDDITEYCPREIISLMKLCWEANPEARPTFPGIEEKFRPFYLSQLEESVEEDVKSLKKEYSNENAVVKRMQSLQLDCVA

For `O=C1N2[C@@H](CC[C@H]2c2cc(F)cc(F)c2)OC12CCN(c1ccnc(C(F)F)n1)CC2` [Example 4.9, (5′S,7a′R)-1-[2-(difluoromethyl)pyrimidin-4-yl]-5′-(3,5-difluorophenyl)tetrahydro-3′H-spiro[piperidine-4,2′-pyrrolo[2,1-b] [1,3]oxazol]-3′-one], the EC50 is less than 25 nM.

Take `CC1CN(c2cccc3ncnn23)CCC12O[C@@H]1CC[C@@H](c3ccccc3)N1C2=O` (stereo partly drawn) [Example 4.244, (4R,5′S,7a′R)-3-methyl-5′-phenyl-1-([1,2,4]triazolo[1,5-a]pyridin-5-yl)tetrahydro-3′H-spiro[piperidine-4,2′-pyrrolo[2,1-b] [1,3]oxazol]-3′-one]: the EC50 is less than 25 nM.

Regarding `N#Cc1cccc(CN2CCC3(CC2)O[C@@H]2CC[C@@H](c4cc(F)cc(F)c4)N2C3=O)c1` [Example 22.6, 3-{[(5′S,7a′R)-5′-(3,5-difluorophenyl)-3′-oxotetrahydro-1H,3′H-spiro[piperidine-4,2′-pyrrolo[2,1-b][1,3]oxazol]-1-yl]methyl}benzonitrile], the EC50 amounted to 234 nM.

Turning to `O=C1N2[C@@H](CC[C@H]2c2ccccc2)OC12CCN(c1cc(-c3cnn(C(F)F)c3)ncn1)CC2` [Example 10.2, (5′S,7a′R)-1-{6-[1-(difluoromethyl)-1H-pyrazol-4-yl]pyrimidin-4-yl}-5′-phenyltetrahydro-3′H-spiro[piperidine-4,2′-pyrrolo[2,1-b][1,3]oxazol]-3′-one], the concentration giving a half-maximal response (EC50) is less than 25 nM.

As for `Cc1nc(N2CCC3(CC2)O[C@@H]2CC[C@@H](c4ccccc4)N2C3=O)ncc1-c1ncnn1C` [Example 21.7, (5′S,7a′R)-1-[4-methyl-5-(1-methyl-1H-1,2,4-triazol-5-yl)pyrimidin-2-yl]-5′-phenyltetrahydro-3′H-spiro[piperidine-4,2′-pyrrolo[2,1-b][1,3]oxazol]-3′-one], the EC50 stood at 181 nM.

Regarding `O=C(c1ccccc1)N1C2CCC1CC1(C2)O[C@@H]2CC[C@@H](c3cc(F)cc(F)c3)N2C1=O` (stereo partly drawn) [Example 6.134, (5′S,7a′R)-8-(benzene-carbonyl)-5′-(3,5-difluorophenyl)tetra-hydro-3′H-spiro[8-azabicyclo[3.2.1]-octane-3,2′-pyrrolo-[2,1-b][1,3]oxazol]-3′-one], the EC50 is 92.4 nM.

As to `O=C(c1cnn2c1CSCC2)N1CCC2(CC1)O[C@@H]1CC[C@@H](c3cc(F)cc(F)c3)N1C2=O` [Example 6.39, (5′S,7a′R)-5′-(3,5-difluorophenyl)-1-(6,7-dihydro-4H-pyrazolo-[5,1-c][1,4]thiazine-3-carbonyl)tetrahydro-3′H-spiro[piperidine-4,2′-pyrrolo[2,1-b] [1,3]oxazol]-3′-one], the EC50 is 738 nM.

Turning to `COc1ncnc(N2CCC3(CC2)O[C@@H]2CC[C@@H](c4ccccc4)N2C3=O)c1F` [Example 11.28, (5′S,7a′R)-1-(5-fluoro-6-methoxypyrimidin-4-yl)-5′-phenyltetrahydro-3′H-spiro[piperidine-4,2′-pyrrolo[2,1-b][1,3]oxazol]-3′-one], the EC50 is less than 25 nM.

For the molecule `O=C1N2[C@@H](CC[C@H]2c2ccccc2)OC12CN(c1ccc(C3CCC3)c3ccnn13)C2` [Example 18.3, (5′S,7a′R)-1-(4-cyclobutylpyrazolo[1,5-a]pyridin-7-yl)-5′-phenyltetrahydro-3′H-spiro[azetidine-3,2′-pyrrolo[2,1-b][1,3]oxazol]-3′-one], the EC50 is less than 25 nM.

Turning to `Cn1cc(C(=O)N2CCC3(CC2)O[C@@H]2CC[C@@H](c4cc(F)cc(F)c4)N2C3=O)cn1` [Example 5.53, (5′S,7a′R)-5′-(3,5-difluoro-phenyl)-1-(1-methyl-1H-pyrazole-4-carbonyl)tetra-hydro-3′H-spiro[piperidine-4,2′-pyrrolo[2,1-b]oxazol]-3′-one], the 50% effective concentration (EC50) came to 509 nM.

Take `Cc1nc(Cl)c(C)c(N2CCC3(CC2)O[C@@H]2CC[C@@H](c4ccccc4)N2C3=O)n1` [Example 4.22, (5′S,7a′R)-1-(6-chloro-2,5-dimethylpyrimidin-4-yl)-5′-phenyltetrahydro-3′H-spiro[piperidine-4,2′-pyrrolo[2,1-b] [1,3]oxazol]-3′-one]: the half-maximal effective concentration (EC50) is 26.9 nM.

Broadly, the EC50 is the concentration that produces a half-maximal response.

Source of the values: patent US12180226B2, “Spirotricycle RIPK1 inhibitors and methods of uses thereof” (Merck Sharp & Dohme LLC, priority 2021, dated 2024).
